The values that follow come from patent US20080194482A1, “Selective Apac2 Receptor Peptide Agonists” (priority 2005, published 2008).

For series [1], the target named is T1, human VPAC2 (Homo sapiens, UniProt P41587).
T1 construct: expressed in transfected cells
T1 sequence (P41587 24-438): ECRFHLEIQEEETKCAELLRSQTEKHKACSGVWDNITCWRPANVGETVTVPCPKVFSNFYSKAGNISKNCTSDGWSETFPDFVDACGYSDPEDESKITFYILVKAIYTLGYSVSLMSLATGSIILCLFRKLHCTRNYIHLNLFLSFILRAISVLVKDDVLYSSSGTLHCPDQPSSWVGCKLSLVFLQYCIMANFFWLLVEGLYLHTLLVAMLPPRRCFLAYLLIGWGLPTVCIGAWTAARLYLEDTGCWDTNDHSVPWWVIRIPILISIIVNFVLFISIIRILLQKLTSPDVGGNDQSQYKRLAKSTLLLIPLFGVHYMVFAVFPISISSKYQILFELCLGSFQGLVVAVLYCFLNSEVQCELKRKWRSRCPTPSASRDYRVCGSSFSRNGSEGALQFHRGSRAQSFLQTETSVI
Description: Alpha screen cAMP assay, in vitro potency at human VPAC2 receptor. The format is cell-based. The following applies: cAMP generation; single result from two analyses in a single run, some values average of more than one experiment. (Changes in cAMP serve as a functional read-out for many G protein-coupled receptors.)

The target of series [2] is T1, human VPAC2. Description: Filter binding assay, 125I-labeled VIP tracer, VPAC2 membranes. The following applies: read-out: Human VPAC2 Receptor Binding (IC50; nM).
In the next series the target is T2, human VPAC1 (Homo sapiens, UniProt P32241).
T2 construct: expressed in transfected cells
T2 sequence (P32241 31-457): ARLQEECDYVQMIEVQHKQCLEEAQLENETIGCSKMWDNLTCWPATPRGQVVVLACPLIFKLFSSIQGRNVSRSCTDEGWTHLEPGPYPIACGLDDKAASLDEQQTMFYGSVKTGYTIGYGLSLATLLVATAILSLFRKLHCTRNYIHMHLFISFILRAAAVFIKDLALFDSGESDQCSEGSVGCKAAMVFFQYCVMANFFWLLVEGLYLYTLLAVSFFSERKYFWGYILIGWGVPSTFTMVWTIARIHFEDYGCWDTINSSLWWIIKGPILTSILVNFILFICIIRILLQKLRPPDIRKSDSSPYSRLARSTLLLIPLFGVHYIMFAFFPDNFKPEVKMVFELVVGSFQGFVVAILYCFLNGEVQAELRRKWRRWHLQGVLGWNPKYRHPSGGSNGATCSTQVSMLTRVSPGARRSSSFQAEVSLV
Nature of the series: Filter binding assay, 125I-labeled VIP tracer, VPAC1 membranes. The note with it: read-out: Human VPAC1 Receptor Binding (IC50; nM).

Another series has as its target T3, human PAC1 (Homo sapiens, UniProt P41586).
T3 construct: expressed in transfected cells
T3 sequence (P41586 21-468): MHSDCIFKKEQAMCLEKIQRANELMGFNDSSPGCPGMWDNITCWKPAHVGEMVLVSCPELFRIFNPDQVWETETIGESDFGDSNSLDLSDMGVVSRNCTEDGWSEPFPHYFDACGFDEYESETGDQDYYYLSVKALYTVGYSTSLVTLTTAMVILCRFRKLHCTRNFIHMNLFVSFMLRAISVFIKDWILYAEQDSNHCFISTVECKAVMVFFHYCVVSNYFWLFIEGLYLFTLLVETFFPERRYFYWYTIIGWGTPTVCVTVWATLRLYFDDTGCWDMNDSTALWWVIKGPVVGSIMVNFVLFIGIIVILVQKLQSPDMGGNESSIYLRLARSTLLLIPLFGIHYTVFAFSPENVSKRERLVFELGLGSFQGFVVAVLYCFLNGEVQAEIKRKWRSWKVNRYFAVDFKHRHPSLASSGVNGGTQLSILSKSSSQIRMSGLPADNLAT
Nature of the series: Filter binding assay, 125I-labeled PACAP-27 tracer, PAC1 membranes. The following applies: read-out: Human PAC1 Receptor Binding (IC50; nM).

Another series concerns the target T4, rat VPAC2 receptor (Rattus norvegicus, UniProt P35000).
T4 construct: expressed in transfected cells; host or cells: CHO-PO (transient, Lipofectamine)
T4 sequence (P35000 23-437): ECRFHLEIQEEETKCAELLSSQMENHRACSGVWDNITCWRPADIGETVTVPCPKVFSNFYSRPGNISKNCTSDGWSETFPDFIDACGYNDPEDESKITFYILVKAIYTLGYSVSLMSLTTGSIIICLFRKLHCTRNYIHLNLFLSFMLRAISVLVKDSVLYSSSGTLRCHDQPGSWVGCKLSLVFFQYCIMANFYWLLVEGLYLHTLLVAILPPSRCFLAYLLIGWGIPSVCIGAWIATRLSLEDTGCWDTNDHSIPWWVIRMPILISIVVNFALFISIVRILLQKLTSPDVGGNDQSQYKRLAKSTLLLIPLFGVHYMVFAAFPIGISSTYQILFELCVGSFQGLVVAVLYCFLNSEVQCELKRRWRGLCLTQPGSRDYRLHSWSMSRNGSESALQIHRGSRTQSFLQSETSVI
Description: DiscoveRx cAMP assay, in vitro potency at rat VPAC2 receptor. The series is classed as cell-based. The note with it: CHO-PO cells transiently transfected with rat VPAC2; cAMP generation; mean of two independent runs. How it is done:
(§1) DiscoveRx: CHO-PO cells are transiently transfected with rat VPAC1 or VPAC2 receptor DNA using commercially available transfection reagents (Lipofectamine from Invitrogen). The cells are seeded at a density of 10,000/well in a 96-well plate and are allowed to grow for 3 days in […] culture medium. At day 3, the assay is performed.
(§2) On the day of the experiment, the medium is removed. Also, the cells are washed twice. The cells are incubated in assay buffer plus IBMX for 15 minutes at room temperature. Afterwards, the stimuli are added and are dissolved in assay buffer. The stimuli are present for 30 minutes. Then, the assay buffer is gently removed. The cell lysis reagent of the DiscoveRx cAMP kit is added. Thereafter, the standard protocol for developing the cAMP signal as described by the manufacturer is used (DiscoveRx Inc., USA). EC50 values for cAMP generation are calculated from the raw signal or are based on absolute cAMP levels as determined by a standard curve performed on each plate.
(§3) Results for each agonist are the mean of two independent runs. Rat VPAC1 and VPAC2 results are only generated using the DiscoveRx assay.

Series [3] is described as follows: Rat serum stability (activity remaining, CHO-VPAC2 DiscoveRx read-out). The format is in vitro ADME. Put shortly: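 Peptides preincubated overnight in rat serum at 37 °C without aprotinin versus 4 °C with aprotinin, then tested as 11-point 5× dilutions in duplicate on CHO-VPAC2 cells, 30 min at RT. cAMP measured by DiscoveRx kit against standards; EC50 derived for each aliquot.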

Another series addresses T5, rat VPAC1 receptor (Rattus norvegicus, UniProt P30083).
T5 construct: expressed in transfected cells; host or cells: CHO-PO (transient, Lipofectamine)
T5 sequence (P30083 31-459): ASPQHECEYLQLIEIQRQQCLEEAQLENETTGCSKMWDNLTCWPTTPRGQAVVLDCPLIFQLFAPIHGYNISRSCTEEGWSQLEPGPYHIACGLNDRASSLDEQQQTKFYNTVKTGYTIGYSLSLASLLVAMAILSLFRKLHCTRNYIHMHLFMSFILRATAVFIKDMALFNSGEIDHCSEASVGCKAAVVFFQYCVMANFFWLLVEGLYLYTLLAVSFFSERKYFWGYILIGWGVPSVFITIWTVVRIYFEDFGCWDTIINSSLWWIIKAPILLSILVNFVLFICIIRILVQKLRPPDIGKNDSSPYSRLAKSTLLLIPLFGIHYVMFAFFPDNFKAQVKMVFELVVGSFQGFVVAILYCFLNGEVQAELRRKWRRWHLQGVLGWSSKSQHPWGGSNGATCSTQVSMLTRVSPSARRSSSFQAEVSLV
Description: DiscoveRx cAMP assay, in vitro potency at rat VPAC1 receptor. The series is classed as cell-based. The following applies: CHO-PO cells transiently transfected with rat VPAC1; cAMP generation; mean of two independent runs. How it is done:
as §1, §2, §3

Square brackets hold non-standard residues; d marks the D form. Peptide text beside a SMILES is read from it. * marks the point of attachment. Orn = NCCC[C@H](N)C(=O)O; Hexanoyl = CCCCCC(=O)*; Aib = CC(C)(N)C(=O)O

Description for human VPAC1: For this assay, the solutions and equipment include:
Presoak solution: 0.5% Polyethyleneamine in Aqua dest
Buffer for flushing filter plates: 25 mM HEPES pH 7.4
Blocking buffer: 25 mM HEPES pH 7.4; 0.2% protease free BSA
Assay buffer: 25 mM HEPES pH 7.4; 0.5% protease free BSA
Dilution and assay plate: PS-Microplate, U form
Filtration Plate: Multiscreen FB Opaque Plate; 1.0 μM Type B Glasfiber filter
In order to prepare the filter plates, the presoak solution is aspirated by vacuum filtration. The plates are flushed twice with 200 μL flush buffer. 200 μL blocking buffer is added to the filter plate. The filter plate is then incubated with 200 μL presoak solution for 1 hour at room temperature.
The assay plate is filled with 25 μL assay buffer, 25 μL membranes (2.5 μg) suspended in assay buffer, 25 μL compound (agonist) in assay buffer, and 25 μL tracer (about 40000 cpm) in assay buffer. The filled plate is incubated for 1 hour with shaking.
The transfer from assay plate to filter plate is conducted. The blocking buffer is aspirated by vacuum filtration and washed two times with flush buffer. 90 μL is transferred from the assay plate to the filter plate. The 90 μL transferred from assay plate is aspirated and washed three times with 200 μL flush buffer. The plastic support is removed. It is dried for 1 hour at 60° C. 30 μL Microscint is added. The count is performed.

Consider `CCCCCC(=O)N[C@@H](Cc1c[nH]cn1)C(=O)N[C@@H](CO)C(=O)N[C@@H](CC(=O)O)C(=O)N[C@@H](C)C(=O)N[C@H](C(=O)N[C@@H](Cc1ccccc1)C(=O)N[C@H](C(=O)N[C@@H](CC(=O)O)C(=O)N[C@@H](CCC(N)=O)C(=O)N[C@@H](Cc1ccc(O)cc1)C(=O)N[C@H](C(=O)N[C@@H](CCCN)C(=O)N[C@@H](CC(C)C)C(=O)N[C@@H](CCCNC(=N)N)C(=O)NC(C)(C)C(=O)N[C@@H](CCC(N)=O)C(=O)N[C@H](C(=O)N[C@@H](C)C(=O)N[C@@H](C)C(=O)NC(C)(C)C(=O)N[C@@H](CCCN)C(=O)N[C@@H](Cc1ccc(O)cc1)C(=O)N[C@@H](CC(C)C)C(=O)N[C@@H](CCC(N)=O)C(=O)N[C@@H](CO)C(=O)N[C@H](C(=O)N[C@@H](CCCN)C(=O)N[C@@H](CCCN)C(=O)NCC(=O)NCC(=O)N1CCC[C@H]1C(=O)N[C@@H](CO)C(=O)N[C@@H](CO)C(=O)NCC(=O)N[C@@H](C)C(=O)N1CCC[C@H]1C(=O)N1CCC[C@H]1C(=O)N1CCC[C@H]1C(=O)N[C@@H](CO)C(=O)O)[C@@H](C)CC)C(C)C)[C@@H](C)O)[C@@H](C)O)C(C)C` [Agonist P396] (Hexanoyl-HSDAVFTDQYT[Orn]LR[Aib]QVAA[Aib][Orn]YLQSI[Orn][Orn]GGPSSGAPPPS-OH; C-terminus assumed), for which the concentration giving a half-maximal response (EC50) (in general, the concentration needed to bring the measured effect to its halfway point) turned out to be 0.11 nM on human VPAC2 [1] and 0.05 nM on rat VPAC2 receptor. Besides, the IC50 (usually the concentration that gives 50% inhibition) on human VPAC2 [2] was 0.26 nM; on human VPAC1, greater than 3000 nM; at human PAC1 it was greater than 25000 nM. Also, the “Rat Serum Stability (estimated purity in % after overnight incub.)” value in series [3] is 93.07%.
Turning to `CCCCCC(=O)N[C@@H](Cc1c[nH]cn1)C(=O)N[C@@H](CO)C(=O)N[C@@H](CC(=O)O)C(=O)N[C@@H](C)C(=O)N[C@H](C(=O)N[C@@H](Cc1ccccc1)C(=O)N[C@H](C(=O)N[C@@H](CC(=O)O)C(=O)N[C@@H](CC(N)=O)C(=O)N[C@@H](Cc1ccc(O)cc1)C(=O)N[C@H](C(=O)N[C@@H](CCCN)C(=O)N[C@@H](CC(C)C)C(=O)N[C@@H](CCCNC(=N)N)C(=O)NC(C)(C)C(=O)N[C@@H](CCC(N)=O)C(=O)N[C@H](C(=O)N[C@@H](C)C(=O)N[C@@H](C)C(=O)NC(C)(C)C(=O)N[C@@H](CCCCN)C(=O)N[C@@H](Cc1ccc(O)cc1)C(=O)N[C@@H](CO)C(=O)N[C@@H](CCC(N)=O)C(=O)N[C@@H](CO)C(=O)N[C@H](C(=O)N[C@@H](CCCN)C(=O)N[C@@H](CC(N)=O)C(=O)N[C@@H](CCCN)C(=O)NCC(=O)NCC(=O)N1CCC[C@H]1C(=O)N[C@@H](CO)C(=O)N[C@@H](CO)C(=O)NCC(=O)N[C@@H](C)C(=O)N1CCC[C@H]1C(=O)N1CCC[C@H]1C(=O)N1CCC[C@H]1C(=O)N[C@@H](CO)C(=O)O)[C@@H](C)CC)C(C)C)[C@@H](C)O)[C@@H](C)O)C(C)C` [Agonist P384] (Hexanoyl-HSDAVFTDNYT[Orn]LR[Aib]QVAA[Aib]KYSQSI[Orn]N[Orn]GGPSSGAPPPS-OH; C-terminus assumed), the results for the IC50 on human VPAC1 and on human PAC1 were greater than 3000 nM and greater than 25000 nM, respectively. In addition, the EC50 on rat VPAC1 receptor is greater than 600 nM. Also, in series [3], the “Rat Serum Stability (estimated purity in % after overnight incub.)” value is recorded as 96.45%.
As for `CCCCCC(=O)N[C@@H](Cc1c[nH]cn1)C(=O)N[C@@H](CO)C(=O)N[C@@H](CC(=O)O)C(=O)N[C@@H](C)C(=O)N[C@H](C(=O)N[C@@H](Cc1ccccc1)C(=O)N[C@H](C(=O)N[C@@H](CCC(=O)O)C(=O)N[C@@H](CCC(N)=O)C(=O)N[C@@H](Cc1ccc(OC)cc1)C(=O)N[C@H](C(=O)N[C@@H](CCCN)C(=O)N[C@@H](CC(C)C)C(=O)N[C@@H](CCCNC(=N)N)C(=O)NC(C)(C)C(=O)N[C@@H](CCC(N)=O)C(=O)N[C@@H](CC(C)C)C(=O)N[C@@H](C)C(=O)N[C@@H](C)C(=O)NC(C)(C)C(=O)N[C@@H](CCCN)C(=O)N[C@@H](Cc1ccc(O)cc1)C(=O)N[C@@H](CC(C)C)C(=O)N[C@@H](CCC(N)=O)C(=O)N[C@@H](CO)C(=O)N[C@H](C(=O)N[C@@H](CCCN)C(=O)N[C@@H](CCCN)C(=O)NCC(=O)NCC(=O)N1CCC[C@H]1C(=O)N[C@@H](CO)C(=O)N[C@@H](CO)C(=O)NCC(=O)N[C@@H](C)C(=O)N1CCC[C@H]1C(=O)N1CCC[C@H]1C(=O)N1CCC[C@H]1C(=O)N[C@@H](CO)C(N)=O)[C@@H](C)CC)[C@@H](C)O)[C@@H](C)O)C(C)C` [Agonist P487] (Hexanoyl-HSDAVFTEQY(Me)T[Orn]LR[Aib]QLAA[Aib][Orn]YLQSI[Orn][Orn]GGPSSGAPPPS-NH2), the figures for the EC50 at human VPAC2 [1] and at rat VPAC2 receptor were 0.24 nM and 0.03 nM, respectively. The values for the IC50 on human VPAC2 [2] and at human VPAC1 were 0.64 nM and greater than 1000 nM, respectively. The “Rat Serum Stability (estimated purity in % after overnight incub.)” value in series [3] was 76.98%.
